PMC11790914, “Chemogenomics for steroid hormone receptors (NR3)” (Communications Chemistry, 2025)
Several values for one entry are separate records, joined by “and”; a condition that tells them apart may be missing. Equal entries are not always repeated.

Legend:
FGFR3 = target: T1, FGFR3 (Homo sapiens, UniProt P22607); test: Liability panel screening by DSF: FGFR3; format: binding; details: DSF, 20 µM, n=2; read-out: Mean ΔTM FGFR3
T1 construct: made in house
Procedure, shortened: (§1)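 Thermal shift: in-house recombinant protein at 2 µM in 10 mM HEPES pH 7.5 with 500 mM NaCl, SYPRO Orange 1:1000, heated at 3 °C/min to 85 °C in technical duplicates. Tm is the Boltzmann inflection point, reported as ∆Tm in K.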

AURKA = target: T2, AURKA (Homo sapiens, UniProt O14965); test: Liability panel screening by DSF: AURKA; format: binding; details: DSF, 20 µM, n=2; read-out: Mean ΔTM AURKA
T2 construct: made in house
T2 sequence (O14965 1-403): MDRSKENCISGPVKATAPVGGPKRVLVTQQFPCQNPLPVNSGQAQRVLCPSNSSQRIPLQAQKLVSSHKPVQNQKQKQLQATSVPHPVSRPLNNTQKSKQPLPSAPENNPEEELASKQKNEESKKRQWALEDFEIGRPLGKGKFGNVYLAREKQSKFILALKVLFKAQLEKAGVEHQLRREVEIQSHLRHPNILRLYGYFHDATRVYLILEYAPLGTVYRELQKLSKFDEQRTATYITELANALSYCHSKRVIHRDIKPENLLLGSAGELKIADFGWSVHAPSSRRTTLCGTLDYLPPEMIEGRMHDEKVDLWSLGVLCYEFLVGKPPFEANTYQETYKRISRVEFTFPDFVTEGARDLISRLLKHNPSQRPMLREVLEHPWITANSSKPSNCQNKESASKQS
Procedure, shortened: as §1

TRIM24 = target: T3, TRIM24 (Homo sapiens, UniProt O15164); test: Liability panel screening by DSF: TRIM24; format: binding; details: DSF, 20 µM, n=2; read-out: Mean ΔTM TRIM24
T3 construct: This panel comprised ten highly ligandable kinases and bromodomains; made in house
T3 sequence (O15164 899-1004 limits assumed): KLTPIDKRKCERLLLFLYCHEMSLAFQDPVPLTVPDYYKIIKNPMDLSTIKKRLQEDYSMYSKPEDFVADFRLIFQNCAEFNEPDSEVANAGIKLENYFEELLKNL
Procedure, shortened: as §1

MAPK1 = target: T4, MAPK1 (Homo sapiens, UniProt P28482); test: Liability panel screening by DSF: MAPK1; format: binding; details: DSF, 20 µM, n=2; read-out: Mean ΔTM MAPK1
T4 construct: made in house
T4 sequence (P28482 whole entry, species assumed): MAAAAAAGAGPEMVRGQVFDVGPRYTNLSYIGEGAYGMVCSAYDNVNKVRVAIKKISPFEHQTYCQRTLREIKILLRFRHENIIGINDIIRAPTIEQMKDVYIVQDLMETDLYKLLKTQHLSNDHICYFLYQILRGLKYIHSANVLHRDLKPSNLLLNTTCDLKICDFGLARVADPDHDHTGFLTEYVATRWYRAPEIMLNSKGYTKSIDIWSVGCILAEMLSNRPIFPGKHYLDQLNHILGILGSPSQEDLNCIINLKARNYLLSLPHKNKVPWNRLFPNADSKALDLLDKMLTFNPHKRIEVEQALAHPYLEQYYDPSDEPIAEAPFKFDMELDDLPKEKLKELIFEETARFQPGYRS
Procedure, shortened: as §1

[1] = other targets with annotated bioactivities at ≤10 µM in previously published dataset; cited from earlier work
HEK293T cells [2] = test: Cytotoxicity: apoptosis induction (caspase-3/7 DEVD fluorogenic DNA dye); details: 1 µM, single replicates
GSK3B = target: T5, GSK3B (Homo sapiens, UniProt P49841); test: Liability panel screening by DSF: GSK3B; format: binding; details: DSF, 20 µM, n=2; read-out: Mean ΔTM GSK3B
T5 construct: made in house
T5 sequence (P49841 whole entry, species assumed): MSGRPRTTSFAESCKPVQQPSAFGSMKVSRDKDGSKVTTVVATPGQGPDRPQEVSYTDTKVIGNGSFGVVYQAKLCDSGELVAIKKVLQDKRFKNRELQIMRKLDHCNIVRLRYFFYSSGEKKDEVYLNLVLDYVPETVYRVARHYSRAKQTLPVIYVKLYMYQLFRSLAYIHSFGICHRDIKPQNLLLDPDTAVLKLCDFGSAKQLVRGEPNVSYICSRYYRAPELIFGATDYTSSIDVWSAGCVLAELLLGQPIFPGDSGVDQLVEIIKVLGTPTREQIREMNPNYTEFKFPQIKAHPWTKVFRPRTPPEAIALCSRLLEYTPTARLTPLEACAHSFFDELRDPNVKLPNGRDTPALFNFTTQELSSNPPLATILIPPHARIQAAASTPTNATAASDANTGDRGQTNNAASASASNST

CDK2 = target: T6, CDK2 (Homo sapiens, UniProt P24941); test: Liability panel screening by DSF: CDK2; format: binding; details: DSF, 20 µM, n=2; read-out: Mean ΔTM CDK2
T6 construct: made in house
Procedure, shortened: as §1

HEK293T cells [3] = test: Cytotoxicity: growth-rate (change in confluence over 24 h); details: 1 µM, normalized to 0.1% DMSO control, single replicates (n=1...)
ABL1 = target: T7, ABL1 (Homo sapiens, UniProt P00519); test: Liability panel screening by DSF: ABL1; format: binding; details: DSF, 20 µM, n=2; read-out: Mean ΔTM ABL1
T7 construct: made in house
T7 sequence (P00519 whole entry, species assumed): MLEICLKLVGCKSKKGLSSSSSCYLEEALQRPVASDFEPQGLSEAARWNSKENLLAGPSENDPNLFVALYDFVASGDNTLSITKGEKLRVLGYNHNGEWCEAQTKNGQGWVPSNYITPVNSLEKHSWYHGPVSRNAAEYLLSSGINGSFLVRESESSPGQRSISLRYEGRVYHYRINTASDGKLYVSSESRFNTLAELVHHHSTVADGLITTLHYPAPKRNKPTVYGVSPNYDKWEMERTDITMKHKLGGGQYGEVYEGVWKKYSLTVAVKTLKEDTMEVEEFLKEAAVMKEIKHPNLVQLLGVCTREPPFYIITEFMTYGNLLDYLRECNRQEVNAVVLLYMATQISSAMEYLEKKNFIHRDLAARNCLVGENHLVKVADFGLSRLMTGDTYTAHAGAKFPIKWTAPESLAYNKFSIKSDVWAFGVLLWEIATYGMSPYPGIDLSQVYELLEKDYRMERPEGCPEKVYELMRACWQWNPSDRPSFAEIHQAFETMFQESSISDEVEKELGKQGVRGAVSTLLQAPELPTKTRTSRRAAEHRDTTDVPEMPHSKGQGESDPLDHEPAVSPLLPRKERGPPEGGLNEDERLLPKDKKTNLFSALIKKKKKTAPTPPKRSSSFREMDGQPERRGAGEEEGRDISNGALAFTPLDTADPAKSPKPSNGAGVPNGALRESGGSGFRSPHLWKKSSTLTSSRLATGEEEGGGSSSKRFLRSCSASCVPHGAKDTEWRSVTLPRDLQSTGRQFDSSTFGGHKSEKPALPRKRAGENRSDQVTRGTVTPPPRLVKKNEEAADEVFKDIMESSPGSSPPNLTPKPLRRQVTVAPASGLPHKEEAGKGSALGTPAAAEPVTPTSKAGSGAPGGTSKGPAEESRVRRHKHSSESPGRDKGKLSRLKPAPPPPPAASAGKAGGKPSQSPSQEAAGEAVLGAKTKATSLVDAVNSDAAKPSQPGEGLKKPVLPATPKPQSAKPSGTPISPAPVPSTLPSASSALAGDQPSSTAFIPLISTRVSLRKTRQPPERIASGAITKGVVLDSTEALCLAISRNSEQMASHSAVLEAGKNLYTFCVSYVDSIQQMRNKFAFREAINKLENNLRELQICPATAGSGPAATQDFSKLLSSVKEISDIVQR
Procedure, shortened: as §1

BRPF1 = target: T8, BRPF1 (Homo sapiens, UniProt P55201); test: Liability panel screening by DSF: BRPF1; format: binding; details: DSF, 20 µM, n=2; read-out: Mean ΔTM BRPF1
T8 construct: This panel comprised ten highly ligandable kinases and bromodomains; made in house
T8 sequence (P55201 628-732 limits assumed): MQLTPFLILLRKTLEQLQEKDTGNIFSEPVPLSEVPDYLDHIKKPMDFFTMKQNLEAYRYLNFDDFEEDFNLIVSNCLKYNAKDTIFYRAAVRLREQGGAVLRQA
Procedure, shortened: as §1

BRD4 = target: T9, BRD4 (Homo sapiens, UniProt O60885); test: Liability panel screening by DSF: BRD4; format: binding; details: DSF, 20 µM, n=2; read-out: Mean ΔTM BRD4
T9 construct: This panel comprised ten highly ligandable kinases and bromodomains; made in house
Procedure, shortened: as §1

CSNK1D = target: T10, CSNK1D (Homo sapiens, UniProt P48730); test: Liability panel screening by DSF: CSNK1D; format: binding; details: DSF, 20 µM, n=2; read-out: Mean ΔTM CSNK1D
T10 construct: made in house
T10 sequence (P48730 whole entry, species assumed): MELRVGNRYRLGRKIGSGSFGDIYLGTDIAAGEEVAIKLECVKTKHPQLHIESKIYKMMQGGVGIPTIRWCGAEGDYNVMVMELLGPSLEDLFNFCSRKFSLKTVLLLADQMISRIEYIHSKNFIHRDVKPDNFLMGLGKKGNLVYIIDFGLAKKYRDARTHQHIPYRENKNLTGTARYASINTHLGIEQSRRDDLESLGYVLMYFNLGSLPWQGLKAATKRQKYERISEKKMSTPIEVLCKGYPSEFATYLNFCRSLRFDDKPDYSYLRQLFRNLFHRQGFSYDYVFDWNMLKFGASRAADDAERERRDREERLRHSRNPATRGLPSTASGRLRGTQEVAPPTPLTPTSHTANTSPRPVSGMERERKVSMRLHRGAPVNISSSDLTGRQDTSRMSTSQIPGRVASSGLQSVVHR
Procedure, shortened: as §1

HEK293T cells [4] = test: Cytotoxicity: metabolic activity (WST-8 / CCK-8 assay); details: 1 µM, single replicates
NR3C1 (GR) = details: (lit.); ref Supplementary Table 1; read-out: Potency [nM] EC50, NR3C1 (GR); cited from earlier work
[5] = tested on: ATF6 activity in Hela ATF6 reporter cells; test: Endoplasmic reticulum stress assay (ATF6 Renilla luciferase reporter, tunicamycin); format: cell-based; details: Homo sapiens, HeLa, 1 µM, single replicates n=1 to n=5; read-out: ER stress [rel. ATF6 activity]
Procedure, shortened: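 ER stress was induced by 100 ng/mL tunicamycin added 4 h after compound (0.1% DMSO) to HeLa ATF6 reporter cells. After 18 h more, Renilla luciferase signal was read and expressed relative to DMSO control, n=5 biological replicates.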

Gal4-VP16 = format: cell-based; details: 1 µM; vs. DMSO ctrl; single replicates n=1-3
HEK293T cells [6] = test: Cytotoxicity: necrosis induction (red fluorescent dye for permeable plasma membranes); format: cell-based; details: 1 µM, 24 h, necrotic cell count normalized to 0.1% DMSO, single replicates;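 further: compounds applied in DMEM high glucose with 0.1% FCS and 0.1% DMSO, necrotic HEK293T cells counted by red staining of cells whose plasma membranes had become permeable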
Procedure: Cells were incubated with the test compounds at the indicated concentrations solubilized with 0.1% DMSO for 24 h. […] Necrotic cells were detected with a red fluorescent dye that labels cells with permeable plasma membranes after 24 h treatment and the necrotic cell count was normalized to 0.1% DMSO treated cells (n = 4). e NR family selectivity profiling of NR3 CG compound candidates in uniform Gal4-hybrid reporter gene assays for selected NR representing the NR1, NR2, NR4 and NR5 families.
HEK293T cells (German Collection of Microorganisms and Cell Culture GmbH, DSMZ; #ACC305) were cultured in DMEM high glucose, supplemented with 10% fetal calf serum (FCS), sodium pyruvate (1 mM), penicillin (100 µ/mL) and streptomycin (100 µg/mL) at 37 °C and 5% (v/v) CO2, and seeded in pre-coated (10 µg/mL collagen G solution (Merck KgaA; #L7213) for 30 min at 37 °C) 96-well plates (2 × 10^5 cells per well). After 24 h, the cells were treated with the respective NR3 CG compound candidate at the recommended concentration, bexarotene (100 µM) or doxorubicin (30 µM) as positive controls in DMEM high glucose supplemented with 0.1% FCS, penicillin (100 µ/mL), streptomycin (100 µg/mL) and 0.1% DMSO, or 0.1% DMSO alone as an untreated control. Each sample was prepared in at least four biologically independent replicates. […] Before drug administration, after the first medium exchange, 24 h after drug administration, and after fluorescence imaging cell confluence was assessed using the Tecan Spark Cyto, to account for changes in cell confluence due to drug administration and cell handling. Compound effects on cell confluence, apoptosis, metabolic activity and necrosis were normalized to the vehicle control of each biological replicate individually.

[7] = tested on: NF-κB activity in HEK293 NF-κB reporter cells; test: NF-kB activity assay (GFP reporter, ionomycin/PMA); format: cell-based; details: n=3
Procedure, shortened: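 Reporter readout: GFP-expressing cells normalized to confluence, imaged every 90 min across 24 h after ionomycin (100 ng/mL)/PMA (10 ng/mL) stimulation of HEK293 cells pre-treated 4 h with compound (0.1% DMSO); triplicate independent experiments.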

[8] = HEK293T, 24 h, apoptotic cell count normalized to 0.1% DMSO
[9] = HEK293T, 24 h, WST-8, normalized to 0.1% DMSO

T1 sequence (P22607 23-806, species assumed): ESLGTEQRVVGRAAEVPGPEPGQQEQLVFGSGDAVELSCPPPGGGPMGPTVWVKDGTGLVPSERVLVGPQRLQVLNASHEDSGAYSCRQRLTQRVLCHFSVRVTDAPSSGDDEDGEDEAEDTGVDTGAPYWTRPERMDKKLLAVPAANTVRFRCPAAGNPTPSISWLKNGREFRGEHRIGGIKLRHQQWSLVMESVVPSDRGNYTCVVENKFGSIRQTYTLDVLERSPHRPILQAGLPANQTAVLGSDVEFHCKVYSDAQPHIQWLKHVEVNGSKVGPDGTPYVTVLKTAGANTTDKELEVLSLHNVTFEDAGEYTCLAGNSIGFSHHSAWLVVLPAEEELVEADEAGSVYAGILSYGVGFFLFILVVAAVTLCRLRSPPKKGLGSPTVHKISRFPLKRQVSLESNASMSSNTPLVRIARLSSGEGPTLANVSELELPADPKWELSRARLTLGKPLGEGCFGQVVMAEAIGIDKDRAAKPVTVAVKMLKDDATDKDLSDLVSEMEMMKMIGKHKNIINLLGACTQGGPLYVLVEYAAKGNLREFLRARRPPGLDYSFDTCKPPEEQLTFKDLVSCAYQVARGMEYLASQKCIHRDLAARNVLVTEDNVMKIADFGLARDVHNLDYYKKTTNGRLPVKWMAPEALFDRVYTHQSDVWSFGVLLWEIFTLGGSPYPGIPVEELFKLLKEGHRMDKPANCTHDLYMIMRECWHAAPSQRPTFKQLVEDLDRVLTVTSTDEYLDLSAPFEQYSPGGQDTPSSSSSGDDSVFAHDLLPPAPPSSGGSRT

## CCC(=O)O[C@]1(C(=O)SCF)[C@H](C)C[C@H]2[C@@H]3C[C@H](F)C4=CC(=O)C=C[C@]4(C)[C@@]3(F)[C@@H](O)C[C@@]21C [Fluticasone propionate]
FGFR3
  ΔTm at 20 µM: 0.32 °C
AURKA
  ΔTm at 20 µM: 0.09 °C
TRIM24
  ΔTm at 20 µM: -0.08 °C
MAPK1
  ΔTm at 20 µM: -0.034 °C
[1]
  Reason for exclusion: number of annotated off-targets: > 5 off-targets
HEK293T cells [2]; DMSO 0.1% = 1.00
  Apoptosis induction [AI]: 0.81 and 1.24
GSK3B
  ΔTm at 20 µM: -0.55 °C
CDK2
  ΔTm at 20 µM: 0.15 °C
HEK293T cells [3]
  Growth rate [GR]: 0.78 and 1.00 and 1.07 and 0.88 (2×) and 0.82
ABL1
  ΔTm at 20 µM: 0.19 °C
BRPF1
  ΔTm at 20 µM: -0.69 °C
BRD4
  ΔTm at 20 µM: -0.24 °C
CSNK1D
  ΔTm at 20 µM: -0.0152 °C
HEK293T cells [4]; DMSO 0.1% = 1.00
  Metabolic activity [MA]: 0.94 and 0.83 and 1.03 and 1.06 and 1.10 and 1.04
NR3C1 (GR)
  EC50: 1 nM

## Oc1ccc(-c2c(-c3ccccc3)nn3c(C(F)(F)F)cc(C(F)(F)F)nc23)cc1 [PHTPP]
FGFR3
  ΔTm at 20 µM: 1.15 °C
AURKA
  ΔTm at 20 µM: -0.53 °C
TRIM24
  ΔTm at 20 µM: -0.6 °C
MAPK1
  ΔTm at 20 µM: -0.2 °C
HEK293T cells [2]; [8]
  Apoptosis induction [AI]: 0.81 and 1.09 and 0.92 and 1.05 and 0.26 and 0.21
GSK3B
  ΔTm at 20 µM: -0.0558 °C
CDK2
  ΔTm at 20 µM: 0.46 °C
HEK293T cells [3]
  Growth rate [GR]: 0.97 and 0.45 and 1.07 and 1.62 and 1.13 and 0.53 and 1.06 and 0.18 and 2.38 and 3.71
[5]
  activity at 1 µM: 100%
Gal4-VP16
  VP16 control [fold reporter gene activity]: 0.97 fold reporter gene activity and 1.04 fold reporter gene activity and 1.08 fold reporter gene activity
ABL1
  ΔTm at 20 µM: 2.06 °C
BRPF1
  ΔTm at 20 µM: -1.38 °C
BRD4
  ΔTm at 20 µM: -1.27 °C
HEK293T cells [6]
  Necrosis induction [NI]: 1.05 and 0.87 and 0.89 and 1.10
CSNK1D
  ΔTm at 20 µM: 0.39 °C
HEK293T cells [4]; [9]
  Metabolic activity [MA]: 1.07 and 1.08 and 1.01 and 1.13 and 1.04 (2×) and 0.95 and 1.05
[7]; 1 µM, 1,5 h
  Mean NFκB response: 2680.27 GFP+-cells/confluence ∙ 1000
[7]; 1 µM, 4,5 h
  Mean NFκB response: 3558.89 GFP+-cells/confluence ∙ 1000
[7]; 1 µM, 7,5 h
  Mean NFκB response: 8794.33 GFP+-cells/confluence ∙ 1000
[7]; 1 µM, 10,5 h
  Mean NFκB response: 18394.67 GFP+-cells/confluence ∙ 1000
[7]; 1 µM, 13,5 h
  Mean NFκB response: 26267.00 GFP+-cells/confluence ∙ 1000
[7]; 1 µM, 16,6 h
  Mean NFκB response: 32070.00 GFP+-cells/confluence ∙ 1000
[7]; 1 µM, 19,5 h
  Mean NFκB response: 36033.33 GFP+-cells/confluence ∙ 1000
[7]; 1 µM, 22,5 h
  Mean NFκB response: 39210.00 GFP+-cells/confluence ∙ 1000
[7]; 1 µM, 3 h
  Mean NFκB response: 2926.71 GFP+-cells/confluence ∙ 1000
[7]; 1 µM, 6 h
  Mean NFκB response: 4822.41 GFP+-cells/confluence ∙ 1000
[7]; 1 µM, 9 h
  Mean NFκB response: 14065.00 GFP+-cells/confluence ∙ 1000
[7]; 1 µM, 12 h
  Mean NFκB response: 22714.33 GFP+-cells/confluence ∙ 1000
[7]; 1 µM, 15 h
  Mean NFκB response: 29343.33 GFP+-cells/confluence ∙ 1000
[7]; 1 µM, 18 h
  Mean NFκB response: 34043.33 GFP+-cells/confluence ∙ 1000
[7]; 1 µM, 21 h
  Mean NFκB response: 37940.00 GFP+-cells/confluence ∙ 1000
[7]; 1 µM, 24 h
  Mean NFκB response: 40376.67 GFP+-cells/confluence ∙ 1000

## CC(=O)O[C@]1(C(C)=O)CC[C@H]2[C@@H]3CCC4=CC(=O)CCC4=C3[C@@H](c3ccc(N(C)C)cc3)C[C@@]21C [Ulipristal acetate]
FGFR3
  ΔTm at 20 µM: -0.057 °C
AURKA
  ΔTm at 20 µM: -1.14 °C
TRIM24
  ΔTm at 20 µM: -1.79 °C
MAPK1
  ΔTm at 20 µM: -0.0546 °C
HEK293T cells [2]; [8]
  Apoptosis induction [AI]: 0.98 (2×) and 0.83 and 1.37 and 1.27 and 0.92
GSK3B
  ΔTm at 20 µM: -0.83 °C
CDK2
  ΔTm at 20 µM: -0.32 °C
HEK293T cells [3]
  Growth rate [GR]: 0.78 and 1.52 and 1.08 and 1.00 (2×) and 1.04 and 0.73 and 0.60 and 1.80 and 3.99
[5]
  activity at 1 µM: 102%
Gal4-VP16
  VP16 control [fold reporter gene activity]: 1.05 fold reporter gene activity and 1.09 fold reporter gene activity and 1.04 fold reporter gene activity
ABL1
  ΔTm at 20 µM: 0.29 °C
BRPF1
  ΔTm at 20 µM: -2.65 °C
BRD4
  ΔTm at 20 µM: -2.72 °C
HEK293T cells [6]
  Necrosis induction [NI]: 1.05 and 1.11 and 0.95 and 0.92
CSNK1D
  ΔTm at 20 µM: 0.22 °C
HEK293T cells [4]; [9]
  Metabolic activity [MA]: 1.04 and 0.97 and 0.99 (2×) and 1.03 (2×) and 0.96 and 1.08
[7]; 1 µM, 1,5 h
  Mean NFκB response: 2644.31 GFP+-cells/confluence ∙ 1000
[7]; 1 µM, 4,5 h
  Mean NFκB response: 3036.67 GFP+-cells/confluence ∙ 1000
[7]; 1 µM, 7,5 h
  Mean NFκB response: 6043.33 GFP+-cells/confluence ∙ 1000
[7]; 1 µM, 10,5 h
  Mean NFκB response: 16570.00 GFP+-cells/confluence ∙ 1000
[7]; 1 µM, 13,5 h
  Mean NFκB response: 25096.67 GFP+-cells/confluence ∙ 1000
[7]; 1 µM, 16,6 h
  Mean NFκB response: 31636.67 GFP+-cells/confluence ∙ 1000
[7]; 1 µM, 19,5 h
  Mean NFκB response: 36313.33 GFP+-cells/confluence ∙ 1000
[7]; 1 µM, 22,5 h
  Mean NFκB response: 39910.00 GFP+-cells/confluence ∙ 1000
[7]; 1 µM, 3 h
  Mean NFκB response: 2710.00 GFP+-cells/confluence ∙ 1000
[7]; 1 µM, 6 h
  Mean NFκB response: 3846.67 GFP+-cells/confluence ∙ 1000
[7]; 1 µM, 9 h
  Mean NFκB response: 10723.33 GFP+-cells/confluence ∙ 1000
[7]; 1 µM, 12 h
  Mean NFκB response: 21213.33 GFP+-cells/confluence ∙ 1000
[7]; 1 µM, 15 h
  Mean NFκB response: 28280.00 GFP+-cells/confluence ∙ 1000
[7]; 1 µM, 18 h
  Mean NFκB response: 34176.67 GFP+-cells/confluence ∙ 1000
[7]; 1 µM, 21 h
  Mean NFκB response: 38276.67 GFP+-cells/confluence ∙ 1000
[7]; 1 µM, 24 h
  Mean NFκB response: 41050.00 GFP+-cells/confluence ∙ 1000
